SMILES strings stand for the structures.

Experiment [1] relates to peripheral blood CD34+ cells. As to the kind of experiment: ERYTHRO 2 PROTOCOL: three-phase erythrocyte differentiation. The format is cell-based, human. Particulars: peripheral blood CD34+ cells in homeostasis, 10 μM. From the text: (§1) This protocol was applied to CD34^+ cells. Phase 1 of this protocol was in particular applied to BFU-E cells. This protocol was adapted from Vlaski et al. (Experimental Hematology 2009; 37:573-584).
(§2) The ex vivo erythrocyte production was established on a 28-day cell culture and involves three phases, namely 1) amplification of primitive erythrocyte progenitors, then 2) differentiation of said progenitors into erythrocyte precursors, and finally 3) the terminal stage of maturation with cell enucleation and development of mature erythrocytes.
(§3) i. Detailed Description of the Three Phases of the Protocol • Phase I of the protocol starts on DO with the seeding of 10^4 cells/mL in 5 mL of supplemented IMDM medium as defined below (see section ii). On day 4, dilution of the culture is performed by recovering 3 mL, which is replaced with the same volume of fresh medium. […] From day 11 to the end of the process, the cells are placed on a layer of mesenchymal stromal cells (MSCs) (coculture), allowing terminal maturation into functional enucleated cells by virtue of the contact between stromal cells and erythrocyte precursors. Suspended erythrocyte cells are seeded at a concentration of 3×10^5/ml and co-cultured from day 11 to day 15 in fresh medium with cytokines (SCF, IL-3, EPO and HC) and 5% fetal calf serum (FCS) required for MSCs. On day 15, the suspended erythrocyte cells are removed from culture, washed, then reseeded onto a new adherent layer of MSCs and cultured for a further four days in 2 mL of fresh medium containing only EPO. • Phase III of the protocol begins on day 19. At this stage, the cells complete their maturation by the enucleation of orthochromatic erythroblasts to form reticulocytes, leading to the formation of erythrocytes. On day 19, the cells are washed and spread on a new layer of MSCs in 2 mL of fresh cytokine-free medium. On day 23, the cultures are fed with fresh medium until day 28, corresponding to the last day of culture in the erythropoiesis protocol. ii. Description of the Culture Medium
(§4) The cells are incubated in Iscove's Modified Dulbecco Medium (IMDM_PAN BIOTECH) supplemented with various reagents to obtain a medium promoting the growth of cells committed to the erythrocyte lineage, namely: • L-Glutamine (4 mM), • Streptomycin and penicillin (1%), • Inositol (40 μg/mL), • Folic acid (10 μg/mL), • Mono-thioglycerol (1.6×10^−4 M), • Transferrin (120 μg/mL), • Insulin (10 μg/mL), N • Iron nitrate (90 ng/mL), • Iron sulfate (900 ng/mL) • Human serum albumin (10 mg/ml).
(§5) After preparation of the culture medium, cytokines are added extemporaneously to the culture medium: • Stem Cell Factor (SCF) at 100 ng/mL, • Interleukin-3 (IL-3) at 5 ng/mL, • Erythropoietin (EPO) at 3 IU/mL, • Hydrocortisone (HC) at 10^−6 M. The CD34^+ cells are incubated at 20% O2 and 5% CO2 at 37° C. for 28 days. iii. Description of the Culture Conditions Applied In order to test the effect of vitisin B in this context, various conditions were defined.
(§6) • CTRL condition: Absence of vitisin B throughout the entire protocol. • Condition I: Presence of vitisin B (10 μM) during phase I of the protocol. • […]: Presence of vitisin B (10 μM) during phases I and II of the protocol. • Condition III: Presence of vitisin B (10 μM) during the three phases of the protocol.
(§7) Analyses are performed on cells from each condition. The differentiation and maturation of erythrocyte cells are monitored by quantifying progenitors, analyzing the expression of GPA and CD71 markers, and also by morphological analysis.
(§8) During and at the end of the various erythrocyte differentiation protocols, cell proliferation and cell differentiation are analyzed. Cell proliferation is evaluated by counting of cells on Malassez slides, with Trypan blue exclusion of dead cells. […]

For experiment [2], the system named is placental blood CD34+ cells. The experiment is described as above. Format: cell-based, human.
Text: as §1, §2, §3, §4, §5, §6, §7, §8

Take `Oc1ccc(C2Oc3ccc(/C=C/c4cc(O)cc5c4[C@H](c4cc(O)cc(O)c4)[C@@H](c4ccc(O)cc4)O5)cc3C2c2cc(O)cc3c2C(c2cc(O)cc(O)c2)C(c2ccc(O)cc2)O3)cc1` (stereo in doubt) [vitisin B, 5-[(2R,2'S,3R,3'S)-5-[(1E)-2-[(2S,3S)-3-(3,5-Dihydroxyphenyl)-2,3-dihydro-6-hydroxy-2-(4-hydroxyphenyl)-4-benzofuranyl]ethenyl]-2,2′,3,3′-tetrahydro-6′-hydroxy-2,2′-bis(4-hydroxyphenyl)[3,4′-bibenzofuran]-3′-yl]-1,3-benzenediol]: the “cell proliferation from the transition to phase II” value is recorded as “sharp increase” in experiment [1] and “sharp increase” in experiment [2] (from Day 11, peak on day 21, 10 μM, conditions I, II, III, FIG. 5). Also, in experiment [2] (10 μM, versus CTRL, FIG. 6A), the “percentage of cells with the phenotype CD71negGPA+” value is reported as “increases”. The “cell proliferation in phase I” value in experiment [2] (Days 0 to 11, 10 μM, versus CTRL, FIG. 5) is recorded as “similar”. Moreover, the “number of cells relative to the control condition (CTRL)” value in experiment [2] (condition I: vitisin B 10 μM during phase I only, FIG. 5) is given as 1.5 times. Further, the “cells expressing GPA” value is listed as “less than 20%” in experiment [2] (day 8 of culture, stated without distinguishing conditions) and “more than 50%” in experiment [2] (day 28, 10 μM (CTRL 40%), FIG. 6A). For the same molecule, the “absolute number of cells with the phenotype CD71negGPA+” value in experiment [2] (vitisin B 10 μM in phase I, FIG. 6B) is “increases”.
